Measurements reported in PubChem BioAssay AID687000 (Broad Institute, 2013).
Where “and” joins values, the source holds several entries; their conditions need not be identical. Equal values may be shown once. Calls of active or inactive are those of the source.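 How the source made its calls: active means fitted dose curve reaches 40% lysis signal rise at or below the highest valid concentration tested for that sample; inconclusive means flat fit between 30% and 70%, or poor curve fit; inactive means signal falls, stays flat within 30%, or no crossing.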

Tested on: C. neoformans lysis, adenylate kinase release luminescence, 4 h
Test: C. neoformans lysis by adenylate kinase leakage – AK release luminescence, cherry-picks, dose response (AID 687000)

SMILES	AC40
COC(=O)C1=C(C)N(Cc2ccc(Br)cc2)C(=S)NC1c1ccc(OC)cc1 (stereo unspecified)	1.93 µM and 1.57 µM
COC(=O)C1=C(C)N(CC(C)C)C(=S)NC1c1cccc(F)c1 (stereo unspecified)	> 15 µM (inactive) and 3.43 µM
CO[C@@H]1CN(C)C(=O)c2ccc(NC(C)=O)cc2OC[C@@H](C)N(C(=O)Cc2cccnc2)C[C@H]1C	> 13.5 µM (inactive)
Cc1ccccc1NC(=O)C(=O)NCCCN1CCCC1=O	> 15 µM (inactive)
COc1ccccc1NC(=S)NCc1ccc(Cl)cc1	2.19 µM
COc1ccc(C(=O)NC(=S)Nc2cccc(Cl)c2N2CCOCC2)cc1[N+](=O)[O-]	> 15 µM (inactive)
CCc1ccc(C(=O)NC(=S)NCc2cccnc2)cc1	8.42 µM
C[C@H]1CN([C@@H](C)CO)C(=O)c2cc(-c3ccc(F)cc3)cnc2O[C@@H]1CN(C)CC1CCCCC1	> 15 µM (inactive)
O=C(CSc1ncnc2c1cnn2-c1cccc(Cl)c1)NCC1CCCO1 (stereo unspecified)	> 15 µM (inactive)
CC=Cc1ccc2n(c1=O)C[C@@H]1[C@@H](CO)[C@H](C(=O)N3CCc4ccccc4C3)N(C(=O)C3CC3)[C@H]21 (mixture of isomers)	> 15 µM (inactive)
COC(=O)C1=C(C)N(Cc2ccc(F)cc2)C(=S)NC1c1cccc(Br)c1 (stereo unspecified)	6.51 µM
COc1ccc(CNC(=S)NCc2ccc(OC(C)C)cc2)cc1	8.39 µM
CCc1ccc(C(C)NC(=S)NCc2ccc(F)cc2)cc1 (stereo unspecified)	0.511 µM
C[C@H]1CN([C@@H](C)CO)C(=O)Cc2cc(N(C)C)ccc2O[C@@H]1CN(C)C(=O)Nc1ccc(C(F)(F)F)cc1	> 15 µM (inactive)
CCCCN1C(=S)NC[C@@H]1Cc1ccccc1	5.11 µM
S=C(Nc1cccc(Cl)c1)Nc1ccccc1Oc1ccccc1	> 15 µM (inactive)
C[C@H](CO)N1C[C@H](C)[C@H](CN(C)C(=O)Nc2ccc3c(c2)OCO3)Oc2ncc(C#CC(C)(C)O)cc2C1=O	> 15 µM (inactive)
COC(=O)C1=C(C)N(Cc2ccc(Cl)cc2)C(=S)NC1c1cccc(Cl)c1 (stereo unspecified)	2.95 µM
CCCCNC(=S)N/N=C/c1ccc(C#N)cc1	4.58 µM
CC(C)C#Cc1ccc([C@@H]2[C@H](CO)N3CCCCN(C(=O)c4ccc5c(c4)OCO5)C[C@@H]23)cc1	> 15 µM (inactive)
C[C@@H]1CCCCO[C@H](CN(C)S(=O)(=O)c2cccs2)[C@@H](C)CN([C@@H](C)CO)C(=O)c2cc(NC(=O)CCC(F)(F)F)ccc2O1	> 15 µM (inactive)

SMILES	AC40
S=C(NCc1ccccc1)NCC1COc2ccccc2O1 (stereo unspecified)	9.32 µM
C[C@@H]1CCCCO[C@H](CN(C)C(=O)CCCN(C)C)[C@@H](C)CN([C@H](C)CO)C(=O)c2cc(NC(=O)Cc3ccccc3)ccc2O1	> 15 µM (inactive)
CC(C)CC#Cc1cnc2c(c1)C(=O)N([C@H](C)CO)C[C@H](C)[C@H](CN(C)C(=O)c1cccnc1)O2	> 15 µM (inactive)
Fc1ccccc1NC(=S)NCCc1cccc(Cl)c1	3.27 µM
CCOC(=O)c1c(-c2ccc(-c3ccccc3)cc2)csc1NC(=O)CNCCN(C)C	1.62 µM
C[C@H](CO)N1C[C@H](C)[C@H](CN(C)Cc2ccc(-c3ccccc3)cc2)Oc2c(NC(=O)c3ccncc3)cccc2C1=O	> 15 µM (inactive)
COC(=O)C1=C(C)N(Cc2ccccc2)C(=O)N[C@H]1c1cccc(F)c1	> 15 µM (inactive)
CNC[C@@H]1OCCCC[C@@H](C)Oc2ccc(NS(=O)(=O)c3ccc(Cl)cc3)cc2C(=O)N([C@H](C)CO)C[C@H]1C	> 15 µM (inactive)
O=C(NC(=S)Nc1cc(Cl)ccc1N1CCOCC1)c1ccccc1[N+](=O)[O-]	13.6 µM
CCCN1C[C@H](C)[C@@H](OC)CN(C)C(=O)c2cc(NC(=O)c3cccc(F)c3)ccc2OC[C@@H]1C	> 15 µM (inactive)
COC(=O)C1=C(C)N(Cc2ccccc2)C(=S)N[C@H]1c1ccc(Br)cc1	2.89 µM and 9.81 µM
Cc1noc(C)c1S(=O)(=O)Nc1ccc2c(c1)C(=O)N([C@@H](C)CO)C[C@@H](C)[C@@H](CN(C)Cc1ccccc1)OCCCC[C@H](C)O2	> 15 µM (inactive)
COC(=O)C1=C(C)N(Cc2ccc(F)cc2)C(=S)NC1c1ccccc1 (stereo unspecified)	2.68 µM
COc1ccc(CNC(=S)NCc2ccc(OC)cc2)cc1	> 15 µM (inactive)
Cc1cccc(-c2ccc([C@H]3[C@H](CO)N4CCCCN(C(=O)c5ccc6c(c5)OCO6)C[C@@H]34)cc2)c1	> 15 µM (inactive)
CCOC(=O)NC(=S)Nc1ccc(C(C)(C)C)cc1	1.21 µM
COc1ccc(C(=O)NC(=S)Nc2ccccc2N2CCCCC2)cc1[N+](=O)[O-]	3.29 µM
CCN(Cc1ccccc1)C(=O)COc1ccccc1	> 15 µM (inactive)
COc1cccc(S(=O)(=O)Nc2ccc3c(c2)[C@H]2C[C@H](CC(=O)N(C)C)O[C@@H](CO)[C@H]2O3)c1	> 15 µM (inactive)
Cc1ccc(S(=O)(=O)N[C@H]2C=C[C@@H](CC(=O)N3CCC(Cc4ccccc4)CC3)O[C@H]2CO)cc1	> 15 µM (inactive)
C[C@@H]1CN([C@H](C)CO)S(=O)(=O)c2ccc(C#CC3CC3)cc2O[C@H]1CN(C)CC1CCOCC1	> 15 µM (inactive)

SMILES	AC40
COC(=O)C1=C(C)N(Cc2ccc(Cl)cc2)C(=S)NC1c1cccc(OC)c1 (stereo unspecified)	3.04 µM
CCC(=O)N(C)C[C@@H]1Oc2cc(C#CC(C)(C)O)ccc2S(=O)(=O)N([C@H](C)CO)C[C@H]1C	> 15 µM (inactive)
C[C@H](CO)N1C[C@H](C)[C@@H](CN(C)CC2CCOCC2)Oc2ncc(C#Cc3ccc(F)cc3)cc2C1=O	> 15 µM (inactive)
Cc1cccc(C)c1NC(=O)CN(C)C(=O)C1CC1C (stereo unspecified)	> 15 µM (inactive)
C[C@@H]1CN([C@H](C)CO)C(=O)Cc2cc(NC(=O)NC3CCCCC3)ccc2O[C@@H]1CN(C)Cc1ccccc1	> 15 µM (inactive)
CCCNC(=O)C[C@@H]1CC[C@@H]2[C@H](COc3ccc(NC(=O)CCC)cc3C(=O)N2C)O1	> 15 µM (inactive)
N#Cc1ccc(C23CC4(C2)[C@H](CN(Cc2ccc(C(F)(F)F)cc2)[C@@H]4c2ccccc2)C3c2ccc(C(F)(F)F)cc2)cc1 (stereo partly specified)	> 15 µM (inactive)
CNC[C@@H]1OCCCC[C@@H](C)Oc2ccc(NC(=O)Nc3ccc4c(c3)OCO4)cc2C(=O)N([C@H](C)CO)C[C@@H]1C	> 15 µM (inactive)
Cc1cc(C(=O)NC(=S)Nc2ccccc2N2CCOCC2)ccc1[N+](=O)[O-]	4.95 µM
CC(C)NC(=O)Nc1ccc2c(c1)C(=O)N([C@@H](C)CO)C[C@@H](C)[C@@H](CN(C)C(=O)NC(C)C)OCCCC[C@@H](C)O2	> 15 µM (inactive)
COCC(=O)N(C)C[C@H]1Oc2ncc(-c3ccccc3F)cc2C(=O)N([C@@H](C)CO)C[C@H]1C	> 15 µM (inactive)
COC(=O)C1=C(C)N(Cc2ccc(F)cc2)C(=S)NC1c1cccc(F)c1 (stereo unspecified)	14.2 µM and 2.63 µM
S=C(Nc1ccccc1)Nc1cc(Cl)ccc1Oc1ccccc1	> 7.5 µM (inactive)
COc1cccc(NC(=S)NC(=O)Cc2ccc(Cl)cc2)c1	1.03 µM
COC(=O)C1=C(C)N(Cc2ccc(Cl)cc2)C(=S)NC1c1ccccc1 (stereo unspecified)	2.53 µM
Cc1noc(C)c1S(=O)(=O)Nc1ccc2c(c1)CC(=O)N([C@H](C)CO)C[C@H](C)[C@H](CN(C)S(=O)(=O)c1cccs1)O2	> 15 µM (inactive)
COC(=O)C1=C(C)N(Cc2ccc(Br)cc2)C(=S)NC1c1cccc(Cl)c1 (stereo unspecified)	1.17 µM
Cc1cc(C)c2nc(N3CCN(C(=O)c4cccs4)CC3)sc2c1	2.56 µM
COC(=O)C1=C(C)N(CC(C)C)C(=S)NC1c1ccc(Cl)cc1 (stereo unspecified)	2.36 µM and 0.971 µM
